Experimental data taken from US20260027179A1, “ANTI-SYNUCLEINOPATHY PEPTIDE AND METHODS TO TREAT NEURODEGENERATIVE DISEASES” (University of British Columbia, priority 2021, published 2026).

Key:
[1] = test system: β2/3 subunit of the GABAA receptor; test: GABAA receptor β2/3 subunit level in cortical cultures, immunoblot; format: cell-based, rat; conditions: 50 μM, 24 hrs
Method: (§1) Primary rat neuron cultures were prepared from embryos of pregnant Sprague-Dawley rats (E18). The experimental protocol was approved by the University of British Columbia Animal Care Committee. Briefly, the cortical tissue or ventral midbrain tissue was isolated into ice cold HBSS (Invitrogen, 14170-112) and then digested with 0.25% trypsin-EDTA at 37° C. for 30 min. After washing with warm DMEM (supplemented with 10% FBS) three times, neurons were suspended in neuron culture media and dissociated by trituration using varying sizes of pipettes. Neurons were then centrifuged, and the pellet was re-suspended in culture media, washed twice with culture media, and plated on the poly-D-lysine-coated plates. Neuron culture was maintained in the 37° C. incubator with 95% O2 and 5% CO2. The morning after culturing, 2/3 of the neuron culture media was replaced with fresh neuron culture media. Media was then replaced every 3-4 days. […]
(§2) Brain tissues or cultured cells were lysed on ice in the lysis buffer and then the solution was centrifuged at 14,000 rpm for 10 min at 4° C. Next, the supernatant was collected and protein concentrations were determined using a BCA protein assay kit (Thermo Scientific, 23227). […] The band density of each protein was quantified by the Bio-Rad Quantity One software and the relative optical density was analyzed relative to the loading control β-actin on the same membrane.

14-3-3 = 14-3-3 level in cortical cultures, immunoblot; format: cell-based, rat; conditions: 50 μM, 24 hrs
Method: as §1, §2

α-synuclein = target: T1, α-synuclein (Mus musculus, UniProt O55042); test: MPTP mouse model, α-synuclein immunoblotting of brain tissue; format: in vivo; conditions: MPTP mice, 6 μmol/kg i.p. twice a day for 12 days, immunoblot
T1 construct: tissue Charles River; host or cells: ventral midbrain and striatum of C57BL/6 mice
Method: C57BL/6 mice were i.p. injected with 30 mg/kg parkinsonian toxin MPTP (or saline as control), once per day for 5 consecutive days, to induce dopaminergic neuron damage. The effects of MPTP administration on mouse rotarod performance and damage to dopaminergic neurons were then analyzed 1 week after the last injection of MPTP. To determine the effect of α-synuclein knockdown in protecting dopaminergic neurons against MPTP, the Tat-βsyn-degron peptide or its control Tat-βsyn (6 μmol/kg; i.p.) was used in some animals twice a day for 12 days, beginning the first day of MPTP injection. […] The striatum is a region that receives dopaminergic neuronal projections from the substantia nigra and is also deeply affected in PD. […]
as §2

dopaminergic neurons = test: MPTP mouse model, dopaminergic neuronal damage (TH immunoblotting, TH immunohistochemistry); format: in vivo; conditions: peptide 6 μmol/kg i.p. twice a day for 12 days
Method: C57BL/6 mice were i.p. injected with 30 mg/kg parkinsonian toxin MPTP (or saline as control), once per day for 5 consecutive days, to induce dopaminergic neuron damage. The effects of MPTP administration on mouse rotarod performance and damage to dopaminergic neurons were then analyzed 1 week after the last injection of MPTP. To determine the effect of α-synuclein knockdown in protecting dopaminergic neurons against MPTP, the Tat-βsyn-degron peptide or its control Tat-βsyn (6 μmol/kg; i.p.) was used in some animals twice a day for 12 days, beginning the first day of MPTP injection. […] The striatum is a region that receives dopaminergic neuronal projections from the substantia nigra and is also deeply affected in PD. Consistent with the specific neurotoxic effects of MPTP on dopaminergic neurons, in mice receiving MPTP injection alone there was a significant loss of protein TH in both dopaminergic neurons in the substantia nigra-containing ventral midbrain (FIGS. 6a and 6c) and dopaminergic neuronal terminals in the striatum (FIGS. 6d and 6f). […] As expected, the specific knockdown of α-synuclein by Tat-βsyn-degron protected against MPTP-induced dopaminergic neuronal injury (FIGS. 6c and 6f).
C57BL/6 mice (20-25 g) received intraperitoneal (i.p.) injection of 30 mg/kg parkinsonian toxin MPTP hydrochloride once a day for 5 days to induce dopaminergic neuron death in the substantia nigra, while the control mice received equal volumes of saline injection. 6 μmol/kg Tat-βsyn-degron peptide or control Tat-βsyn peptide was i.p. injected into the MPTP-treated mice every 12 hrs from the first day of MPTP injection until 7 days after the last injection of MPTP. All groups of mice then underwent a rotarod test before they were sacrificed.
Brain tissues or cultured cells were lysed on ice in the lysis buffer and then the solution was centrifuged at 14,000 rpm for 10 min at 4° C. Next, the supernatant was collected and protein concentrations were determined using a BCA protein assay kit (Thermo Scientific, 23227). Equal amount of protein samples was mixed with 4× sample buffer, boiled at 100° C. for 5 min, and separated on 10% sodium dodecyl sulphate-polyacrylamide gel electrophoresis (SDS-PAGE). Proteins were then transferred to Immobilon-PTM polyvinylidene fluoride (PVDF) membranes (Bio-Rad, 162-0177). The membranes were blocked with 5% non-fat milk in Tris-buffered saline containing 0.1% Tween-20 (TBST) for 1 hr at room temperature, and then incubated overnight at 4° C. with primary antibody. After washing 3×5 min in TBST, membranes were incubated with horseradish peroxidase-conjugated secondary antibody for 1 hr at room temperature. After another three washes with TBST, protein was visualized in the Bio-Rad Imager using ECL western blotting substrate (Pierce, 32016). The band density of each protein was quantified by the Bio-Rad Quantity One software and the relative optical density was analyzed relative to the loading control β-actin on the same membrane.
C57BL/6 mice were anesthetized with 1.5 g/kg urethane (Sigma, U2500) and then perfused with 0.9% saline and 4% paraformaldehyde. Brains were removed and fixed in 4% paraformaldehyde for 24 hrs before being transferred to 30% sucrose/PBS solution for cryoprotection. The brains were then sectioned into 30 μm slices using a Leica cryostat. After blocking and permeabilization using a PBS solution containing 1% BSA and 0.2% Triton X-100 for 30 min at room temperature, the brain slices were incubated with anti-TH antibody (1:800 dilution) for 3 days at 4° C. Finally, the TH-positive neurons in the substantia nigra and TH-positive neuronal terminals in the striatum were stained using the anti-mouse Ig HRP detection kit (BD Transduction Laboratories, 551011) according to manufacturer's instruction, and visualized under Zeiss Axio Observer D1 microscope. […]

endogenous α-synuclein = target: T2, endogenous α-synuclein (Mus musculus, UniProt O55042); test: α-synuclein expression in peripheral and brain tissues after peptide injection; format: in vivo; conditions: 6 μmol/kg, i.p., 6 hours after peptide injection
T2 construct: from tissue; host or cells: kidney, spleen, ventral midbrain, striatum

[2] = MPTP 30 mg/kg x5 days, immunoblot

“YGRKKRRQRRRRTKSGVYLVGRRRG (The sequence is synthesized (YGRKKRRQRRRRTKSGVYLVGRRRG)) [Tat-βsyn-degron]” was tested, and the “expression level of β2/3 subunit of the GABAA receptor” value [1] was “did not affect the expression levels”, the “expression level of 14-3-3” value (14-3-3) was “did not affect the expression levels” and the α-synuclein in striatum (α-synuclein) was “induced significant α-synuclein degradation”. For the same sequence, the “α-synuclein in substantia nigra-containing ventral midbrain” value (α-synuclein) was “induced significant α-synuclein degradation”, the “TH protein level in striatum after MPTP” value (dopaminergic neurons; [2]) was “protected against the MPTP-induced decrease in the level of TH protein” and the “TH protein level in ventral midbrain after MPTP” value (dopaminergic neurons; [2]) was “protected against the MPTP-induced decrease in the level of TH protein”. The “MPTP-induced dopaminergic neuronal damage (overall, FIG. 6 and FIG. 7a-d)” value (dopaminergic neurons) was “largely protected”, the “density of dopaminergic neuronal terminals in the striatum after MPTP” value (dopaminergic neurons; TH densitometry) was “protected against MPTP-induced decrease” and the “number of dopaminergic neurons in the substantia nigra pars compacta after MPTP” value (dopaminergic neurons; blinded TH neuron counting) was “protected against MPTP-induced decrease in the number of dopaminergic neurons”. The “α-synuclein expression in the kidney” value (endogenous α-synuclein) was “significantly reduce the α-synuclein expression”, the “α-synuclein expression in the spleen” value (endogenous α-synuclein) was “significantly reduce the α-synuclein expression” and the “α-synuclein expression in the striatum” value (endogenous α-synuclein) was “significantly reduce the α-synuclein expression”. For the same sequence, the “α-synuclein expression in the ventral midbrain” value (endogenous α-synuclein) was “significantly reduce the α-synuclein expression”.
